Data from patent publication US20090054382A1, “COMPOSITIONS OF PHOSPHODIESTERASE TYPE IV INHIBITORS” (priority 2005, published 2009).

Assays:
[1] = system: TNF-α release from human PBMCs; assay: Cell based assay for TNF-α release, PDE IV inhibitor in combination with p38 MAP Kinase inhibitors; settings: inhibiting TNF-α release from human PBMCs
Protocol: Blood was collected in heparin or EDTA vacutainers from healthy human volunteers and Peripheral Blood Mononuclear Cells isolated using Ficoll Hypaque gradient. The cells were resuspended in serum free RPMI 1640 medium at a concentration of 2 million cells/ml.). […] of this cell suspension was co-incubated with 20 μl of compound, alone or in combination, for 10 min in a flat bottom 96 well microtiter plate. Compounds were dissolved in DMSO initially and diluted in medium for a final concentration of 0.2% DMSO. LPS (1 μg/ml, final concentration) was then added at a volume of 10 μl per well. After 30 min, 20 μl of fetal calf serum (final concentration of 10%) was added to each well. Cultures were incubated overnight at 37° C. in an atmosphere of 5% CO2 and 95% air. Supernatant were then removed and tested by ELISA for TNF-α release using a commercial kit (e.g. BD Biosciences). The level of TNF-α in treated wells was compared with the vehicle treated controls and inhibitory potency of compound was expressed as IC50 values calculated from the percent inhibition values by using Graph pad prism.

[2] = system: LPS induced airway hyperreactivity and neutrophil count in BAL; assay: In-vivo assay of PDE-IV inhibitors in combination with muscarinic receptor antagonists (LPS airway hyperreactivity and neutrophilia); settings: Wistar rats, intratracheal, combination with Tiotropium
Protocol: MRA (1 ng/kg to 1 mg/kg) and PDE-IV inhibitor (1 ng/kg to 1 mg/kg) were instilled intratracheally under anesthesia either alone or in combination.
Wistar rats weighing 200±20 gm were used in the study. Rats had free access to food and water. On the day of experiment, animals were exposed to lipopolysaccharide (LPS, 100 μg/ml) for 40 min. One group of vehicle treated rats was exposed to phosphate buffered saline (PBS) for 40 min. […] The respiratory parameters were recorded online using Biosystem XA software, (Buxco Electronics, USA). Penh, at any chosen dose of acetylcholine was expressed as percent of PBS response and using a nonlinear regression analysis PC100 (2 folds of PBS value) values were computed. […]
PC100LPS=PC100 in vehicle treated and LPS challenged group PC100TEST=PC100 in group treated with a given dose of test compound PC100PBS=PC100 in vehicle treated group challenged with PBS Immediately after the airway hyperreactivity response was recorded, animals were sacrificed and bronchoalveolar lavage (BAL) performed. […] Total leukocyte and Neutrophil counts were expressed as cell count (millions cells ml^−1 of BAL). […]

## COc1cc(C2=NO[C@]3(CCOC3)C2)ccc1OC(F)F (single isomer, unassigned) [Compound No. 266, (5S or 5R)-3-[4-(Difluoromethoxy)-3-methoxyphenyl]-1,7-dioxa-2-azaspiro[4.4]non-2-ene]
[1]
  Indication: synergistic response
[2]
  synergy with muscarinic receptor antagonist (MRA): synergy
